Source: patent US20240383906A1, “5-SUBSTITUTED PYRIDINE-2(1H)-KETONE COMPOUND AND USE THEREOF” (JIANGSU KANION PHARMACEUTICAL CO., LTD., priority 2021, published 2024)

Columns and labels:
[1] = Toxicological evaluation (with toxicokinetics) of rats administered for 21 consecutive days; conditions: SD, rat, in vivo, po
Experimental: • SD rats (male and female, 7 to 8 weeks old, Zhejiang Vital River Laboratory Animal Technology Co., Ltd.).
• In this experiment, SD rats were administered orally once a day with a test substance, a candidate drug for treating cancer, for 21 days to detect its potential toxicity. At the same time, the toxicokinetic (TK) characteristics of the compound in the animals were examined.
126 rats (63 per gender) were divided into 6 groups. In the main test administration groups, each group had 5 males and 5 females. In the TK test control group, there were 3 males and 3 females. In the administration groups, each group had 6 males and 6 females. The compound was administered once a day at doses of 1, 3, 10, 20 milligrams per kilogram per day (mg/kg/day). The control group was only given the solvent. The volume of administration was 10 mL/kg. At the start of administration, the animals were 7 to 8 weeks old, with male weights ranging from 251.11 to 308.11 grams, and female weights from 181.53 to 219.03 grams.
The evaluation items include mortality (moribund/death), clinical symptoms, body weight, food consumption, clinical pathology (hematology, serum biochemistry, coagulation), gross (necropsy) evaluation, organ weights, histopathological evaluation, and toxicokinetics. The toxicokinetic parameters include peak concentration (Cmax), time to maximum drug concentration (Tmax), and area under the drug-time curve (AUC0-last).

[2] = Pharmacokinetic evaluation in mice; format: in vivo; conditions: male CD-1 mice
Experimental: • CD-1 mice (male, 7 to 9 weeks old, Shanghai SLAC)
The pharmacokinetic characteristics of the compound in rodents were tested using a standard protocol after intravenous injection (IV) and oral (PO) administration. In the experiment, mice were given a single intravenous injection and oral administration. The solvent for the intravenous injection was water. The solvent for oral administration was 0.5% hydroxypropyl methylcellulose. This project involved four male CD-1 mice. Two of the mice were administered a dose of 0.5 mg/kg via intravenous injection. Plasma samples were collected at 0 hours (before administration) and at 0.083, 0.25, 0.5, 1, 2, 4, 8, and 24 hours after administration. The other two mice were administered a dose of 2.5 mg/kg via oral gavage. Plasma samples were collected at 0 h (before administration) and at 0.25, 0.5, 1, 2, 4, 8, and 24 hours after administration. Whole blood samples were collected within 24 hours, centrifuged at 3000 g for 15 minutes, and the supernatant was separated to obtain plasma samples. Four times the volume of acetonitrile solution containing an internal standard was added to precipitate the protein. After centrifugation, the supernatant was collected, an equal volume of water was added, and it was centrifuged again to collect the supernatant for sampling. The plasma concentration was quantitatively analyzed by LC-MS/MS analysis method, and the pharmacokinetic parameters were calculated, such as peak concentration (Cmax), clearance rate (CL), half-life (T1/2), volume of distribution at steady state (Vdss), area under drug-time curve (AUC0-last), bioavailability (F).

[3] = female, 1 mg/kg/day, female, oral 1 mg/kg/day, Day 1
[4] = female, 1 mg/kg/day, female, oral 1 mg/kg/day, Day 21
[5] = female, 3 mg/kg/day, female, oral 3 mg/kg/day, Day 1
[6] = female, 3 mg/kg/day, female, oral 3 mg/kg/day, Day 21
[7] = female, 10 mg/kg/day, female, oral 10 mg/kg/day, Day 1
[8] = female, 10 mg/kg/day, female, oral 10 mg/kg/day, Day 21
[9] = female, 20 mg/kg/day, female, oral 20 mg/kg/day, Day 1
[10] = female, 20 mg/kg/day, female, oral 20 mg/kg/day, Day 21
[11] = male, 1 mg/kg/day, male, oral 1 mg/kg/day, Day 1
[12] = male, 1 mg/kg/day, male, oral 1 mg/kg/day, Day 21
[13] = male, 3 mg/kg/day, male, oral 3 mg/kg/day, Day 1
[14] = male, 3 mg/kg/day, male, oral 3 mg/kg/day, Day 21
[15] = male, 10 mg/kg/day, male, oral 10 mg/kg/day, Day 1
[16] = male, 10 mg/kg/day, male, oral 10 mg/kg/day, Day 21
[17] = male, 20 mg/kg/day, male, oral 20 mg/kg/day, Day 1
[18] = male, 20 mg/kg/day, male, oral 20 mg/kg/day, Day 21

Compound: Cn1cc(-c2cnc(CNc3nccn4c(-c5cc(F)cc(F)c5)cnc34)cn2)ccc1=O [Compound 2]
- Cmax [1, 3]: 1.02 µM
- Tmax [1, 3]: 4 h
- AUC(0-t) ([1]; female, 1 mg/kg/day, female, oral 1 mg/kg/day, Day 1, read-out: AUC0-24 h): 14.5 µM·h
- Cmax [1, 4]: 1.58 µM
- Tmax [1, 4]: 8 h
- AUC(0-t) ([1]; female, 1 mg/kg/day, female, oral 1 mg/kg/day, Day 21, read-out: AUC0-24 h): 25.6 µM·h
- Cmax [1, 5]: 2.27 µM
- Tmax [1, 5]: 8 h
- AUC(0-t) ([1]; female, 3 mg/kg/day, female, oral 3 mg/kg/day, Day 1, read-out: AUC0-24 h): 33.2 µM·h
- Cmax [1, 6]: 4.18 µM
- Tmax [1, 6]: 8 h
- AUC(0-t) ([1]; female, 3 mg/kg/day, female, oral 3 mg/kg/day, Day 21, read-out: AUC0-24 h): 63.8 µM·h
- Cmax [1, 7]: 3.93 µM
- Tmax [1, 7]: 4 h
- AUC(0-t) ([1]; female, 10 mg/kg/day, female, oral 10 mg/kg/day, Day 1, read-out: AUC0-24 h): 77.7 µM·h
- Cmax [1, 8]: 8.8 µM
- Tmax [1, 8]: 8 h
- AUC(0-t) ([1]; female, 10 mg/kg/day, female, oral 10 mg/kg/day, Day 21, read-out: AUC0-24 h): 144 µM·h
- Cmax [1, 9]: 6.17 µM
- Tmax [1, 9]: 8 h
- AUC(0-t) ([1]; female, 20 mg/kg/day, female, oral 20 mg/kg/day, Day 1, read-out: AUC0-24 h): 101 µM·h
- Cmax [1, 10]: 10.3 µM
- Tmax [1, 10]: 8 h
- AUC(0-t) ([1]; female, 20 mg/kg/day, female, oral 20 mg/kg/day, Day 21, read-out: AUC0-24 h): 179 µM·h
- Cmax [1, 11]: 0.97 µM
- Tmax [1, 11]: 8 h
- AUC(0-t) ([1]; male, 1 mg/kg/day, male, oral 1 mg/kg/day, Day 1, read-out: AUC0-24 h): 12.5 µM·h
- Cmax [1, 12]: 1.62 µM
- Tmax [1, 12]: 8 h
- AUC(0-t) ([1]; male, 1 mg/kg/day, male, oral 1 mg/kg/day, Day 21, read-out: AUC0-24 h): 22.4 µM·h
- Cmax [1, 13]: 1.88 µM
- Tmax [1, 13]: 8 h
- AUC(0-t) ([1]; male, 3 mg/kg/day, male, oral 3 mg/kg/day, Day 1, read-out: AUC0-24 h): 23.1 µM·h
- Cmax [1, 14]: 3.5 µM
- Tmax [1, 14]: 8 h
- AUC(0-t) ([1]; male, 3 mg/kg/day, male, oral 3 mg/kg/day, Day 21, read-out: AUC0-24 h): 50.1 µM·h
- Cmax [1, 15]: 2.96 µM
- Tmax [1, 15]: 4 h
- AUC(0-t) ([1]; male, 10 mg/kg/day, male, oral 10 mg/kg/day, Day 1, read-out: AUC0-24 h): 47.4 µM·h
- Cmax [1, 16]: 6.87 µM
- Tmax [1, 16]: 8 h
- AUC(0-t) ([1]; male, 10 mg/kg/day, male, oral 10 mg/kg/day, Day 21, read-out: AUC0-24 h): 110 µM·h
- Cmax [1, 17]: 4.24 µM
- Tmax [1, 17]: 8 h
- AUC(0-t) ([1]; male, 20 mg/kg/day, male, oral 20 mg/kg/day, Day 1, read-out: AUC0-24 h): 76.6 µM·h
- Cmax [1, 18]: 7.34 µM
- Tmax [1, 18]: 8 h
- AUC(0-t) ([1]; male, 20 mg/kg/day, male, oral 20 mg/kg/day, Day 21, read-out: AUC0-24 h): 123 µM·h
- F ([2]; IV 0.5 mg/kg, PO 2.5 mg/kg): 29.4%
- clearance ([2]; mouse, plasma, IV 0.5 mg/kg): 5.37 mL/min/kg
- half-life ([2]; mouse, plasma, IV 0.5 mg/kg, read-out: T1/2 (IV) (converted)): 5.99 h
- Vd ([2]; mouse, plasma, IV 0.5 mg/kg, read-out: Vdss): 0.568 L/kg
- AUC(0-t) ([2]; mouse, plasma, PO 2.5 mg/kg, read-out: AUC0-last (PO)): 20.5 µM·h
- Cmax ([2]; mouse, plasma): 1.76 µM
